“And” between values parts separate entries of the source, which are not always exact repeats. Equal values may be shown once. Read-outs that look alike come from different tables or passages of the source.
Assays:
[1] = molecular target: T1, homomeric cbv1 (rslo1) channels (Rattus norvegicus, UniProt Q62976); assay: Inside-out patch-clamp of homomeric cbv1 channels expressed in Xenopus oocytes; assay type: cell-based; conditions: I/O patches, Ca2+i 10 μM, ±20 mV, read-out: Average NPo (% of control)
T1 construct: Full-length cDNA coding for cbv1-subunits was cloned from rat cerebral artery myocytes by PCR; expressed in transfected cells; host or cells: Xenopus laevis oocytes (cRNA injection)
T1 sequence (Q62976 1-1148 isoform Q62976-2): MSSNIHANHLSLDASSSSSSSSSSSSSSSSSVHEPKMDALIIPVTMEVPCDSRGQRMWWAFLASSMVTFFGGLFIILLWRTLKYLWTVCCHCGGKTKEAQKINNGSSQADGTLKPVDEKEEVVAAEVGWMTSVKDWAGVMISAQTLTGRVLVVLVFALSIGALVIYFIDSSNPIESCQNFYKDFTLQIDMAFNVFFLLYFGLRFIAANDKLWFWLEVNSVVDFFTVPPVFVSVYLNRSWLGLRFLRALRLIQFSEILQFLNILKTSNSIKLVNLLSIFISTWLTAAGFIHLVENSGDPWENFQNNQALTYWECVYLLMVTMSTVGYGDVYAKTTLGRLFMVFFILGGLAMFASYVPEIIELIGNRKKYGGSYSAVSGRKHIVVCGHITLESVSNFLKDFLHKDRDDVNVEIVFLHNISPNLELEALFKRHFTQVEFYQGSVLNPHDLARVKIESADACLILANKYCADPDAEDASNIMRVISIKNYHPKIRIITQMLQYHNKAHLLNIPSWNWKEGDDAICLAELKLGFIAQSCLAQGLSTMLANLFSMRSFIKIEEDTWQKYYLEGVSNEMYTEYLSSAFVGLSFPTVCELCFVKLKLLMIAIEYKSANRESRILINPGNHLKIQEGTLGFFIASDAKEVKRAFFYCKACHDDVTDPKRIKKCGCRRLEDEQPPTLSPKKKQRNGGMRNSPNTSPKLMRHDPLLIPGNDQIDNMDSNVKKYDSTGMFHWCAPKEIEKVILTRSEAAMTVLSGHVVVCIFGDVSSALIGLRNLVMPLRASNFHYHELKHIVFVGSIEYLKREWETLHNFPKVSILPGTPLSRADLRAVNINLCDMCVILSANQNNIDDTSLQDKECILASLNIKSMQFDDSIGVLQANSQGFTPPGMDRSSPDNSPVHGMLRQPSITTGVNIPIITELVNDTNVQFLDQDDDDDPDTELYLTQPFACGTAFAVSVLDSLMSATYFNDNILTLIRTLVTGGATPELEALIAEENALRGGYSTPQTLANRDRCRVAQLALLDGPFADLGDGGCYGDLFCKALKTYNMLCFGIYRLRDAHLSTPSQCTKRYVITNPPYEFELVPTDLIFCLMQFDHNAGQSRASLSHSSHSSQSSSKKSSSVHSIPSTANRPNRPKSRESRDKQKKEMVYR
Text: cRNA Preparation and Injection into Xenopus Oocytes. Full-length cDNA coding for cbv1-subunits was cloned from rat cerebral artery myocytes by PCR and ligated to the PCR-XL-TOPO cloning vector (Invitrogen Corp., Carlsbad, Calif., United States of America) (Jaggar et al., 2005). cDNA coding for cbv1-subunits was cleaved from the cloning vector by BamHI (Invitrogen Corp., Carlsbad, Calif., United States of America) and XhoI (Promega, Madison, Wis., United States of America) and directly inserted into the pOX vector for expression in Xenopus oocytes. pOX-cbv1 was linearized with NotI (Promega, Madison, Wis., United States of America) and transcribed in vitro using T3 polymerase. […]
Electrophysiology. […] Single-channel and macroscopic currents were recorded from inside-out (I/O) or outside-out (O/O) patches. […] Nominal free Ca^2+ was calculated with MaxChelator Sliders (C. Patton, Stanford University, California, United States of America) and validated experimentally using Ca^2+-selective electrodes (Corning Incorporated Science Products Division, Corning, N.Y., United States of America). […]
(§1) Currents were recorded using an EPC8 amplifier (HEKA Electronics, Lambrecht/Pfalz, Germany) at 1 kHz using a low-pass, eight-pole Bessel filter 902LPF (Frequency Devices, Haverhill, Mass., United States of America). […]

cbv1+β1 channels = cbv1+β1 channels (UniProt Q16558+Q62976); assay: Patch-clamp of heteromeric cbv1+β1 channels expressed in Xenopus oocytes; assay type: cell-based, rat
Chain of cbv1+β1 channels (Q62976 1-1148 isoform Q62976-2): as above
Chain of cbv1+β1 channels (Q16558 whole entry): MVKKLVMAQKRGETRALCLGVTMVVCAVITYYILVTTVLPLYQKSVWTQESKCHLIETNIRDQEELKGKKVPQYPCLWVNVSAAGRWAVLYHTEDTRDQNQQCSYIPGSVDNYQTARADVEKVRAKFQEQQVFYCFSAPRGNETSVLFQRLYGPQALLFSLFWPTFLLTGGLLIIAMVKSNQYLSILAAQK
Text: cRNA Preparation and Injection into Xenopus Oocytes. Full-length cDNA coding for cbv1-subunits was cloned from rat cerebral artery myocytes by PCR and ligated to the PCR-XL-TOPO cloning vector (Invitrogen Corp., Carlsbad, Calif., United States of America) (Jaggar et al., 2005). cDNA coding for cbv1-subunits was cleaved from the cloning vector by BamHI (Invitrogen Corp., Carlsbad, Calif., United States of America) and XhoI (Promega, Madison, Wis., United States of America) and directly inserted into the pOX vector for expression in Xenopus oocytes. pOX-cbv1 was linearized with NotI (Promega, Madison, Wis., United States of America) and transcribed in vitro using T3 polymerase. Beta,-subunit cDNA inserted into the EcoR I/Sal I sites of the pCl-neo expression vector was linearized with NotI and transcribed in vitro using T7 polymerase. Beta4-subunit cDNA inserted into the pOx vector was linearized by NotI and transcribed using T3 polymerase. The mMessage-mMachine kit (Ambion Inc., Austin, Tex., United States of America) was used for transcription. The pOX vector and the cDNA coding for β1-subunits were generous gifts from Aguan Wei (Washington University, Saint Louis, Mo., United States of America) and Maria Garcia (Merck Research Laboratories, Whitehouse Station, N.J., United States of America).
Oocytes were removed from Xenopus laevis and prepared as described (Dopico et al., 1998). cRNA was dissolved in […] at 5 (cbv1) and 15 (β1 or β4) ng/μl; 1-μl aliquots were stored at −70° C. Cbv1 cRNA was injected alone (2.5 ng/μp) or coinjected with either β1 or β4 (7.5 ng/μl) cRNAs, giving molar ratios ≧6:1 (β:α). cRNA injection (23 nl/oocyte) was conducted using a modified micropipette (Drummond Scientific Co., Broomall, Pa., United States of America). The interval between injection and patch-clamp recordings was 48-72 h.
Electrophysiology. Oocytes were prepared for patch-clamp recordings as described (Dopico et al., 1998). Single-channel and macroscopic currents were recorded from inside-out (I/O) or outside-out (O/O) patches. For experiments with oocytes, both bath and electrode solutions contained (mM) 135 K^+ gluconate, 5 EGTA, 1 MgCl2, 15 HEPES, 10 glucose, pH 7.35. For experiments with myocytes, KCl substituted for K^+ gluconate. In all experiments, free Ca^2+ in solution was adjusted to the desired value by adding CaCl2. In most studies, free Ca^2+ in electrode solution=10 μM. In O/O studies with 17β-estradiol, however, free Ca^2+ in the electrode solution=0.3 μM. Nominal free Ca^2+ was calculated with MaxChelator Sliders (C. Patton, Stanford University, California, United States of America) and validated experimentally using Ca^2+-selective electrodes (Corning Incorporated Science Products Division, Corning, N.Y., United States of America).
Patch-recording electrodes were made as described (Dopico et al., 1998). Immediately before recording, the tip of each electrode was fire-polished on a microforge WPI MF-200 (World Precision Instruments, Inc., Sarasota, Fla., United States of America) to give resistances of 5-9 MD when filled with solution. An agar bridge with gluconate or Cl^− as the main anion (for oocyte and myocyte experiments, respectively) was used as ground electrode. After excision from the cell, the membrane patch was exposed to a stream of bath solution containing each agent at final concentration. Solutions were applied onto the patches using a pressurized system DAD12 (ALA Scientific Instruments, New York, N.Y., United States of America) via a micropipette tip with an internal diameter of 100 μm. Experiments were carried out at room temperature (21° C.).
as §1

`C[C@H](CCC(=O)O)[C@H]1CC[C@H]2[C@@H]3CC[C@@H]4C[C@H](O)CC[C@]4(C)[C@H]3CC[C@]12C` [LC, 5β-cholanic acid 3α-ol] was tested, and the remaining activity at 150 µM [1] was 112 ± 13%, the “LC-activation (as a percentage of NPo in vehicle)” value (cbv1+β1 channels; 150 μM, 0.1 μM Ca2+) was 139.9±32.9% and the Emax at 150 µM (cbv1+β1 channels; 150 μM, 1 μM Ca2+, read-out: LC-activation (as a percentage of NPo in vehicle), maximal effect) was 244 ± 58.9%. For the same compound, the Percent of control at 150 µM (cbv1+β1 channels; 150 μM, 30 μM Ca2+i, read-out: NPo in LC (% of control)) was 172 ± 9.5%, the “Decrease in mean close time” value (cbv1+β1 channels; 150 μM, FIG. 4B) was −60% and the Percent of control at 150 µM (cbv1+β1 channels; 150 μM, patches with N=1, read-out: Channel mean closed time (% of control)) was 41%. For the same compound, the Percent of control at 150 µM (cbv1+β1 channels; 150 μM, patches with N=1, read-out: Channel mean open time (% of control)) was 137%, the “Increase in Po” value (cbv1+β1 channels; 150 μM, single-channel I/O patch (N=1), +20 mV, Ca2+i 10 μM) was 320% and the Emax (cbv1+β1 channels; I/O patches, Ca2+i 10 μM, read-out: NPo at Emax (% of control)) was 290 ± 45%. For the same compound, the EC50 (cbv1+β1 channels; I/O patches, Ca2+i 10 μM, ±20 mV, read-out: EC50 for increase in NPo) was 43.5 µM and 46 µM.
